In ChEMBL document CHEMBL1129646, “Structure-activity relationships study of two series of leukotriene B4 antagonists: novel indolyl and naphthyl compounds substituted with a 2-[methyl(2-phenethyl)amino]-2-oxoethyl side chain” (J Med Chem, 1996):

Legend:
[1] = LTB4 receptor binding from radioligand binding assay using guinea pig spleen cell membrane
Leukotriene B4 receptor = Leukotriene B4 receptor (Homo sapiens, UniProt Q9NPC1+Q15722); test: LTB4 receptor binding from radioligand binding assay using human intact neutrophils PMN
[2] = molecular target: T1, Leukotriene B4 receptor 1 (Homo sapiens, UniProt Q15722); test: Compound was evaluated for LTB4 receptor binding, obtained from radioligand binding assay using human intact neutrophils PMN
[3] = molecular target: T1, Leukotriene B4 receptor 1; test: Compound was evaluated for LTB4 receptor binding obtained from radioligand binding assay using human intact neutrophils PMN; No activity

T1 sequence (Q15722 whole entry): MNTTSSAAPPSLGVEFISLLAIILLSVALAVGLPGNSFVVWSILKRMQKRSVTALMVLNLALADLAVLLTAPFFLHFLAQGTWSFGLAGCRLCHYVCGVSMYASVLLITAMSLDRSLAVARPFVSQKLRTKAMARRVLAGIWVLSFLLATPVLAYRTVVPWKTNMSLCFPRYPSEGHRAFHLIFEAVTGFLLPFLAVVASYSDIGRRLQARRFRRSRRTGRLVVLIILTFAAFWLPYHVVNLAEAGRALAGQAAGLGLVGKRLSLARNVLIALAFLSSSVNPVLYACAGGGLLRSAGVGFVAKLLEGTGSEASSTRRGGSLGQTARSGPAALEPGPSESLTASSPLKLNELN

Structure (SMILES) | IC50 [1] | IC50 (Leukotriene B4 receptor) | IC50 [2] | IC50 [3]
CN(CCc1ccccc1)C(=O)Cc1cc(C(=O)O)c(OCc2ccccc2)c2ccccc12 | 6.5 nM | 80 nM | – | –
CN(CCc1ccccc1)C(=O)Cn1cc(/C=C/C(=O)O)c2ccc(OCc3ccccc3)cc21 | > 300 nM | – | – | –
CN(CCc1ccccc1)C(=O)Cc1cc(CCC(=O)O)cc2c(-c3ccccc3)cccc12 | 3.5 nM | 40 nM | – | –
C/C(=C\c1cn(CC(=O)N(C)CCc2ccccc2)c2ccc(OCc3ccccc3)cc12)C(=O)O | 5 nM | 11 nM | – | –
CN(CCc1ccccc1)C(=O)Cn1cc(/C=C/C=C/C(=O)O)c2cc(OCc3ccccc3)ccc21 | 8 nM | 19 nM | – | –
CN(CCc1ccccc1)C(=O)Cc1cc(CCC(=O)O)cc2c(OCc3ccccc3)cccc12 | 10 nM | – | – | –
CC/C(=C\c1cn(CC(=O)N(C)CCc2ccccc2)c2ccc(OCc3ccccc3)cc12)C(=O)O | 1.3 nM | 7.6 nM | – | –
CN(CCc1ccccc1)C(=O)Cn1cc(/C=C/C2N=NN=N2)c2cc(OCc3ccccc3)ccc21 | 4.5 nM | 19 nM | – | –
CN(CCc1ccccc1)C(=O)Cc1cc(C(=O)O)cc2cc(OCc3ccccc3)ccc12 | 1.07 nM | 7.75 nM | – | –
CN(CCc1ccccc1)C(=O)Cn1cc(CC(=O)O)c2cc(OCc3ccccc3)ccc21 | 30 nM | – | – | –
CN(CCc1ccccc1)C(=O)Cn1cc(/C=C/C(=O)O)c2cc(OCc3ccccc3)ccc21 | 4.3 nM | 53 nM | – | –
CN(CCc1ccccc1)C(=O)Cn1c(C(=O)O)cc2cc(OCc3ccccc3)ccc21 | 2.5 nM | 11.2 nM | – | –
CN(CCc1ccccc1)C(=O)Cc1cc(CCCCC(=O)O)cc2c(OCc3ccccc3)cccc12 | 2.8 nM | 100 nM | – | –
Cc1c(C(=O)O)c2cc(OCc3ccccc3)ccc2n1CC(=O)N(C)CCc1ccccc1 | 5 nM | 90 nM | – | –
CC/C(=C\c1cc(CC(=O)N(C)CCc2ccccc2)c2cccc(OCc3ccccc3)c2c1)C(=O)O | 0.8 nM | 50 nM | – | –
CN(CCc1ccccc1)C(=O)Cc1cc(/C=C/C(=O)O)cc2c(Oc3ccccc3)cccc12 | 2 nM | 20 nM | – | –
CN(CCc1ccccc1)C(=O)Cc1cc(/C=C/C(=O)O)cc2c(-c3ccccc3)cccc12 | 1 nM | 50 nM | – | –
CN(O)C(=O)c1cc(CC(=O)N(C)CCc2ccccc2)c2cccc(OCc3ccccc3)c2c1 | – | – | 60 nM | –
CN(CCc1ccccc1)C(=O)Cc1cc(/C=C/C(=O)O)cc2c(OCc3ccccc3)cccc12 | 0.58 nM | 3.55 nM | – | –

Structure (SMILES) | IC50 [1] | IC50 (Leukotriene B4 receptor) | IC50 [2] | IC50 [3]
CN(CCc1ccccc1)C(=O)Cc1cc(C(=O)O)cc2c(-c3ccccc3)cccc12 | 0.45 nM | 8.25 nM | – | –
CN(CCc1ccccc1)C(=O)Cn1cc(CCC(=O)O)c2cc(OCc3ccccc3)ccc21 | 40 nM | – | – | –
CN(CCc1ccccc1)C(=O)Cn1cc(C(C(=O)O)c2ccccc2)c2c(OCc3ccccc3)cccc21 (stereo not drawn) | 2.5 nM | 19 nM | – | –
CCCCCOc1cccc2c(CC(=O)N(C)CCc3ccccc3)cc(C(=O)O)cc12 | 0.6 nM | 9 nM | – | –
CC/C(=C\c1cn(CC(=O)N(C)CCc2ccccc2)c2cccc(OCc3ccccc3)c12)C(=O)O | 1.5 nM | 35 nM | – | –
C/C(=C\c1cn(CC(=O)N(C)CCc2ccccc2)c2cccc(OCc3ccccc3)c12)C(=O)O | 2.33 nM | 24.5 nM | – | –
CN(CCc1ccccc1)C(=O)Cn1cc(/C=C/C(=O)O)c2cccc(OCc3ccccc3)c21 | > 300 nM | – | – | Not Active
CN(CCc1ccccc1)C(=O)Cc1cc(CCC(=O)O)cc2c(Oc3ccccc3)cccc12 | 20 nM | 250 nM | – | –
CN(CCc1ccccc1)C(=O)Cn1cc(C(=O)O)c2cc(OCc3ccccc3)ccc21 | 1.5 nM | 26.3 nM | – | –
CN(CCc1ccccc1)C(=O)Cc1cc(/C=C/C2N=NN=N2)cc2c(OCc3ccccc3)cccc12 | 3 nM | 5 nM | – | –
COc1cccc2c(CC(=O)N(C)CCc3ccccc3)cc(C(=O)O)cc12 | > 30 nM | 700 nM | – | –
CN(CCc1ccccc1)C(=O)Cc1cc(/C=C/C=C/C(=O)O)cc2c(OCc3ccccc3)cccc12 | 1 nM | 8 nM | – | –
CN(CCc1ccccc1)C(=O)Cn1cc(C=O)c2cc(OCc3ccccc3)ccc21 | – | – | > 300 nM | –
CN(CCc1ccccc1)C(=O)Cn1cc(C(=O)c2cccc(C(=O)O)c2)c2cc(OCc3ccccc3)ccc21 | 12 nM | 8.5 nM | – | –
CN(CCc1ccccc1)C(=O)Cn1cc(/C=C/C(=O)O)c2c(OCc3ccccc3)cccc21 | 1 nM | 16.5 nM | – | –
CN(CCc1ccccc1)C(=O)Cn1cc(/C=C/C=C/C(=O)O)c2c(OCc3ccccc3)cccc21 | 1.5 nM | 15 nM | – | –
CN(CCc1ccccc1)C(=O)Cn1cc(C(=O)O)c2c(OCc3ccccc3)cccc21 | 1.45 nM | 20.3 nM | – | –
CN(CCc1ccccc1)C(=O)Cc1cc(C(=O)O)cc2c(Oc3ccccc3)cccc12 | 1.5 nM | 25 nM | – | –
